Results published in publication PMC12024397, “Structure–Activity Study of the Antimicrobial Lipopeptide Humimycin A and Screening Against Multidrug-Resistant Staphylococcus aureus” (Antibiotics, 2025).
In brackets after ≈: the same amount, converted by molar mass. Structures can show the parent of a compound that is named as a salt. Non-standard residues stand in square brackets, D forms with d. Residues, ends and D or L forms follow the SMILES beside them. *: point of attachment. Tetradecanoyl(3S-OH) = CCCCCCCCCCC[C@H](O)CC(=O)*

Columns and labels:
[1] = test system: S. aureus ATCC 29213; assay: microbe, parasite or virus in culture; conditions: Staphylococcus aureus, ATCC29213, read-out: Inhibition zone diameter
Protocol: Each agar well was loaded with 70 µL of a peptide solution (256 µg/mL).
For the agar diffusion assay, the bacterial strain was cultured overnight at 37 °C in the previously described media. Cultures were then inoculated at 1% (v/v) in a soft agar medium containing 1.5% (w/v) agar. Wells were created in the inoculated agar plates, and 70 µL of the humimycin analog solution (256 µg/mL) was added to each well. Kanamycin sulfate (256 µg/mL) and 5% dimethyl sulfoxide (DMSO) in water were included as positive and negative control, respectively.

[2] = test system: Staphylococcus aureus ATCC 29213; type: cell-based
Source text: (§1) Analogs were serially diluted two-fold from stock solutions.

[3] = test system: Staphylococcus aureus ATCC 43300; type: cell-based; conditions: ATCC 43300
Source text: as §1

[4] = test system: Bacillus subtilis ATCC 23857; assay: MIC, broth microdilution; type: cell-based; conditions: 37 °C, 18–20 h, triplicate
Source text: as §1

[5] = test system: Escherichia coli ATCC 25922; assay: MIC, broth microdilution; type: cell-based; conditions: 37 °C, 18–20 h, triplicate
Source text: as §1

[6] = test system: Pseudomonas aeruginosa ATCC 27853; assay: MIC, broth microdilution; type: cell-based; conditions: 37 °C, 18–20 h, triplicate
Source text: as §1

[7] = test system: Salmonella enterica ATCC 14028; assay: MIC, broth microdilution; type: cell-based; conditions: 37 °C, 18–20 h, triplicate
Source text: as §1

[8] = test system: Staphylococcus and Streptococcus species; conditions: stereochemistry of the β-hydroxyl group; cited from earlier work
Source text: Among promising AMLPs of bacterial origin, humimycins show very attractive activities against S. aureus. Humimycins A 1 and B 2 are composed of a heptapeptide bearing an N-terminal β-hydroxy myristoyl lipid chain (Table 1). […] A novel approach was employed to discover humimycins by combining bioinformatics and chemical synthesis. Rather than depending on bacterial cultures to discover and produce ... || β-Hydroxymyristic acid is specifically incorporated into lipopeptides like surfactin by certain enzymes in Bacillus species. […] The presence of a hydroxyl group imparts some amphiphilicity, aiding interaction with bacterial mem ...

Row | MIC [2] | MIC [3] | SMILES | zone of inhibition at 256 µg/mL [1] | MIC [4] | MIC [5] | MIC [6] | MIC [7] | potency of (S)-isomer relative to (R)-isomer [8]
1 |  |  | NC[C@H]1O[C@H](O[C@H]2[C@H](O)[C@@H](O[C@H]3O[C@H](CO)[C@@H](O)[C@H](N)[C@H]3O)[C@H](N)C[C@@H]2N)[C@H](O)[C@@H](O)[C@@H]1O [Kanamycin sulfate] | 24 mm |  |  |  |  | 
2 | 8 µg/mL (≈ 7.24 µM) | 16 µg/mL (≈ 14.5 µM) | CCCCCCCCCCC[C@H](O)CC(=O)N[C@@H](Cc1ccc(O)cc1)C(=O)N[C@@H](CO)C(=O)N[C@H](Cc1ccc(O)cc1)C(=O)N[C@@H](Cc1ccccc1)C(=O)N[C@@H](C(=O)N[C@H](C(=O)N[C@H](C(=O)O)C(C)C)C(C)C)[C@H](C)O [compound 1, reference compound] ({Tetradecanoyl(3S-OH)}-YS[dY]F[dT]VV-OH; N-terminus and C-terminus assumed) |  | - ^b (No antimicrobial activity was detected up to 256 µg/mL) | - (No antimicrobial activity was detected up to 256 µg/mL) | - (No antimicrobial activity was detected up to 256 µg/mL) | - (No antimicrobial activity was detected up to 256 µg/mL) | four-fold more potent
